Assay results taken from US20250313563A1, “GLYCOGEN SYNTHASE KINASE 3 INHIBITORS AND USES THEREOF” (The Broad Institute, Inc., priority 2022, published 2025).
Where two headings read alike, the source gives them in different places.

Key:
[1] = target: GSK3α (GST-full length GSK3α) (Homo sapiens (Human), UniProt P49840); assay: GSK3α TR-FRET kinase assay; format: biochemical
Summary of the method: (§1)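 IC50s came from the normalized 665/615 TR-FRET ratio after Tb-anti-pSer641 antibody and streptavidin-d2 detection of phosphorylated biotin-glycogen synthase peptide (200 nM). ATP was 4 μM for GSK3α, 2 μM for GSK3b, or 1 mM; 1 nM enzyme, 100 min, ambient, pH 7.5, after 30-min compound preincubation.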

[2] = target: GSK3b (GST-full length GSK3b) (Homo sapiens (Human), UniProt P49841); assay: GSK3b TR-FRET kinase assay; format: biochemical
Summary of the method: as §1

[3] = 1 nM GSK3α, 4 μM ATP, 30 minute preincubation, Table 16, read-out: GSK3-A TR-FRET BIOCHEMICAL (TR-FRET)
[4] = 1 nM GSK3b, 2 μM ATP, 30 minute preincubation, Table 16, read-out: GSK3-B TR-FRET BIOCHEMICAL (TR-FRET)
[5] = GSK3-A (TR-FRET 1 mM ATP), GMean, IC50, 1 mM ATP, geometric mean
[6] = GSK3-B (TR-FRET 1 mM ATP), GMean, IC50, 1 mM ATP, geometric mean
[7] = 1 nM GSK3α, 4 μM ATP, 30 minute preincubation, Table 16, read-out: GSK3-A TR-FRET BIOCHEMICAL (TR-FRET), IC50
[8] = 1 nM GSK3b, 2 μM ATP, 30 minute preincubation, Table 16, read-out: GSK3-B TR-FRET BIOCHEMICAL (TR-FRET), IC50
[9] = read-out: GSK3-B (TR-FRET 1 mM ATP), GMean, IC50, 1 mM ATP, geometric mean
[10] = read-out: GSK3-A (TR-FRET 1 mM ATP), GMean, IC50, 1 mM ATP, geometric mean

Sequence of GSK3α (GST-full length GSK3α) (P49840 whole entry): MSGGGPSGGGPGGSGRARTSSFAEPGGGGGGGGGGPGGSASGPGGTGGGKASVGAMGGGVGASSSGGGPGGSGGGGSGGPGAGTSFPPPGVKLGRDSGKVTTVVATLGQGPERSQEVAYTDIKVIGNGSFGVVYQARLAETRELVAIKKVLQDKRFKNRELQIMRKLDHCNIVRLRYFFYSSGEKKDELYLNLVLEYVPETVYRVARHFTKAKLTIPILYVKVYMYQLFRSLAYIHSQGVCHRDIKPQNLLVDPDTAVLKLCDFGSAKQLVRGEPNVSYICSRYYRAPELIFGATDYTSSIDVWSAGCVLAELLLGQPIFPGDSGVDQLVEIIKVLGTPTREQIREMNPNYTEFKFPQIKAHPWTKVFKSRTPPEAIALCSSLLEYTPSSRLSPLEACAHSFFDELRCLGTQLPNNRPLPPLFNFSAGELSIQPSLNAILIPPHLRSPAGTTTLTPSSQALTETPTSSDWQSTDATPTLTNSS
Sequence of GSK3b (GST-full length GSK3b) (P49841 whole entry): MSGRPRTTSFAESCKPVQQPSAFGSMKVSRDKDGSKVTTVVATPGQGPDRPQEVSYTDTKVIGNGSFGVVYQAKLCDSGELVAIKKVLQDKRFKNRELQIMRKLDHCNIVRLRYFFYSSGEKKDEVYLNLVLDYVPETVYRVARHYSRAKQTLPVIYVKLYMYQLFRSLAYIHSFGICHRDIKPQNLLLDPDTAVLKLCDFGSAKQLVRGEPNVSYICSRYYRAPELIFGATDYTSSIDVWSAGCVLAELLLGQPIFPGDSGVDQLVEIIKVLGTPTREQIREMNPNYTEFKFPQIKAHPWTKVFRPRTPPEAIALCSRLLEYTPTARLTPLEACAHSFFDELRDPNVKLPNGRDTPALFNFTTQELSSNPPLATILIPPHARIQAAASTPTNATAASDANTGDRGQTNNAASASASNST

SMILES | IC50 [1, 3] [nM] | IC50 [2, 4] [nM] | further results
CC[C@@]1(c2ccccc2)C2=C(Nc3n[nH]cc31)[C@@H](F)C(C)(C)CC2=O [Compound 957196] | > 5000 | > 5000 | 
CC[C@@]1(c2ccccc2)C2=C(Nc3n[nH]cc31)[C@H](F)C(C)(C)CC2=O [Compound 957197] | 100 to 1000 | 1000 to 5000 | IC50 [1, 5]: > 5000 nM; IC50 [2, 6]: > 5000 nM
CC[C@]1(c2ccccc2)C2=C(Nc3n[nH]cc31)[C@@H](F)C(C)(C)CC2=O [Compound 957199] | > 5000 | > 5000 | 
CC[C@]1(c2ccccc2)C2=C(Nc3n[nH]cc31)[C@H](F)C(C)(C)CC2=O [Compound 957200] | 100 to 1000 | 100 to 1000 | IC50 [1, 5]: > 5000 nM; IC50 [2, 6]: > 5000 nM
CC[C@]1(c2ccccc2)C2=C(CC(C)(C)[C@H](F)C2=O)Nc2n[nH]cc21 [Compound 957403] | 100 to 1000 | 1000 to 5000 | 
CC[C@]1(c2ccccc2)C2=C(CC(C)(C)[C@@H](F)C2=O)Nc2n[nH]cc21 [Compound 957404] | > 5000 | > 5000 | 
CC[C@@]1(c2ccccc2)C2=C(CC(C)(C)[C@H](F)C2=O)Nc2n[nH]cc21 [Compound 957405] | 100 to 1000 | 1000 to 5000 | 
CC[C@@]1(c2ccccc2)C2=C(CC(C)(C)[C@@H](F)C2=O)Nc2n[nH]cc21 [Compound 957406] | > 5000 | > 5000 | 
CC[C@@]1(c2cccc(C(F)(F)F)c2)C2=C(CC(C)(C)NC2=O)Nc2n[nH]c(F)c21 [Compound 957497] |  |  | IC50 [1, 7]: > 5000 nM; IC50 [2, 8]: > 5000 nM
CCC1(c2cccc(-c3cnn(C)c3)c2)C2=C(Nc3n[nH]cc31)C(F)C(C)(C)CC2=O (stereo not drawn) [Compound 957504] | 100 to 1000 | 1000 to 5000 | IC50 [2, 9]: > 5000 nM
CC[C@@]1(c2cccc(-c3cnn(C)c3)c2)C2=C(Nc3n[nH]cc31)[C@H](F)C(C)(C)CC2=O [Compound 957505] | ≤ 100 | 1000 to 5000 | IC50 [1, 10]: 1000 to 5000 nM; IC50 [2, 9]: > 5000 nM
CC[C@@]1(c2cccc(-c3ccnn3C)c2)C2=C(Nc3n[nH]cc31)[C@H](F)C(C)(C)CC2=O [Compound 957507] | ≤ 100 | ≤ 100 | IC50 [1, 10]: ≤ 100 nM; IC50 [2, 9]: 1000 to 5000 nM
CC[C@]1(c2cccc(-c3ccnn3C)c2)C2=C(Nc3n[nH]cc31)[C@H](F)C(C)(C)CC2=O [Compound 957508] | > 5000 | > 5000 | 
CCC1(c2cccc(-c3ccnn3C)c2)C2=C(Nc3n[nH]cc31)C(F)C(C)(C)CC2=O (stereo not drawn) [Compound 957509] | 100 to 1000 | > 5000 | 
CCC1(c2cccc(-c3cnn(C)c3)c2)C2=C(Nc3n[nH]cc31)C(F)C(C)(C)CC2=O (stereo not drawn) [Compound 957510] | 1000 to 5000 | > 5000 | 
CC[C@]1(c2cccc(C(F)(F)F)c2)C2=C(CC(C)(C)NC2=O)Nc2n[nH]c(F)c21 [Compound 957518] |  |  | IC50 [1, 7]: ≤ 100 nM; IC50 [2, 8]: 100 to 1000 nM
CCC1(c2cccc(-c3ccncc3)c2)C2=C(Nc3n[nH]cc31)C(F)C(C)(C)CC2=O (stereo not drawn) [Compound 959341] | ≤ 100 | 100 to 1000 | IC50 [1, 10]: 1000 to 5000 nM; IC50 [2, 9]: > 5000 nM
CCC1(c2cccc(-c3ccncc3)c2)C2=C(Nc3n[nH]cc31)C(F)C(C)(C)CC2=O (stereo not drawn) [Compound 959342] | 1000 to 5000 | > 5000 | 
CC[C@]1(c2cccc(-c3ccncc3)c2)C2=C(Nc3n[nH]cc31)[C@@H](F)C(C)(C)CC2=O [Compound 959344] | > 5000 | > 5000 | 
CCC1(c2cccc(-c3cncn3C(C)C)c2)C2=C(Nc3n[nH]cc31)C(F)C(C)(C)CC2=O (stereo not drawn) [Compound 963155] | ≤ 100 | ≤ 100 | 
